Data taken from US9845319B2, “Amide substituted thiazoles as modulators of RORyt” (Janssen Pharmaceutica NV, priority 2014, dated 2017).
pIC50, pKd: −log10 of the molar value.

Experiments:
full-length human RORγt [1] = molecular target: T1, full-length human RORγt (Homo sapiens, UniProt P51449); assay: RORγt (full-length human) Reporter Assay, Conditions A; assay type: cell-based; settings: for pIC50: HEK293T cells, GAL4-DBD-RORγt, luciferase, read-out: RORγt (FL) Reporter Assay A, IC50; for inhibition at 2 µM: read-out: RORγt (FL) Reporter Assay A, % inhibition (* at 2 μM), 2 μM compound concentration (footnote *)
T1 construct: expressed in transfected cells; host or cells: HEK293T, transiently transfected with pCMV-BD-ROR
T1 sequence (P51449 1-497 isoform P51449-2): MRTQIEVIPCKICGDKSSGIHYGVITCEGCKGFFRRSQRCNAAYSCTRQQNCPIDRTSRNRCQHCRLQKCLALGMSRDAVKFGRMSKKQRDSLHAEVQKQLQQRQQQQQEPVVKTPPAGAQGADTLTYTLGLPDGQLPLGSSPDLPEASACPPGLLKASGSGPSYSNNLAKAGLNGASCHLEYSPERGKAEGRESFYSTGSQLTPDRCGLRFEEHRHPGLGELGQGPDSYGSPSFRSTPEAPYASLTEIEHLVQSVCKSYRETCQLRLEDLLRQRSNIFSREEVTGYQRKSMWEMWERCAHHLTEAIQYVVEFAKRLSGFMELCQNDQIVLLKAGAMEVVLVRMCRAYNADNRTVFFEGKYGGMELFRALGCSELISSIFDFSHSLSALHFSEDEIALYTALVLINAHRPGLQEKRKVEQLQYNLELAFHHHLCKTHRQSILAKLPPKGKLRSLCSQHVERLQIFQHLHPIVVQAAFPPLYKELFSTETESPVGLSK
Outline: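 Reporter cells lysed after 16–20 h compound exposure; firefly and Renilla luciferase luminescence measured. Firefly signal normalised to DMSO and saturating reference compound, then to Renilla; IC50 from normalised data versus concentration, percent inhibition relative to DMSO.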

[2] = molecular target: T2, human RORγt ligand binding domain (RORγt LBD) (Homo sapiens, UniProt P51449); assay: RORγt ThermoFluor assay; settings: estimated from thermal shift concentration response
T2 construct: His-tag (N); TurboTEV protease cleavage site (ENLYFQG) (N); made in house; host or cells: E. coli (pHIS1, a modified pET expression vector)
T2 sequence (P51449 with tags, fused parts or gaps): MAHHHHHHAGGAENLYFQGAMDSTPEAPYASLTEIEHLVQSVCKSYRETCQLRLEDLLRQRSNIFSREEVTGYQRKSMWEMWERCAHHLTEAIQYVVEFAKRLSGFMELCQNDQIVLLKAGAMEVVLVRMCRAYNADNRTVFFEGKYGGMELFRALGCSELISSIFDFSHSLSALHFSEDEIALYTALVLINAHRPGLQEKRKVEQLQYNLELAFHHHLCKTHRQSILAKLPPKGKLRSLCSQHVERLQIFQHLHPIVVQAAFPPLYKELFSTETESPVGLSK
Outline: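 Thermal shift of RORγt LBD (0.065 mg/mL) with 60 μM 1,8-ANS in 100 mM Hepes pH 7.0, NaCl, GSH, 0.002% Tween-20, heated at 1° C/min. ANS fluorescence tracked versus temperature; ΔTm relative to DMSO wells. Compounds serially diluted 1:2 from 10 mM DMSO stock.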

[3] = system: IL-17 production by CD4 T cells; assay: Human Th17 Assay; assay type: cell-based; settings: 72 h; IL-17 in supernatant, 3 days, human CD4+ T cells; read-out: Human Th17 Assay, IC50
Experimental: The human Th17 assay tests the effect of RORγt modulatory compounds on IL-17 production by CD4 T cells under conditions which favor Th17 differentiation. Total CD4^+ T cells were isolated from the peripheral blood mononuclear cells (PBMC) of healthy donors using a CD4^+ T cell isolation kit II, following the manufacturer's instructions (Miltenyi Biotec). […] 50 μL of compound at titrated concentrations in DMSO were added into each well at final DMSO concentration at 0.2%. Cells were incubated for 1 hour, then 50 μL of Th17 cell differentiation medium was added to each well. The final concentrations of antibodies and cytokines (R&D Systems) in differentiation medium were: 3×10^6/mL anti-CD3/CD28 beads (prepared using human T cell activation/expansion kit, Miltenyi Biotec), 10 μg/mL anti-IL4, 10 μg/mL anti-IFNγ, 10 ng/mL IL1β, 10 ng/mL IL23, 50 ng/mL IL6, 3 ng/mL TGFβ and 20 U/mL IL2. Cells were cultured at 37° C. and 5% CO2 for 3 days. Supernatants were collected and the accumulated IL-17 in culture was measured by using MULTI-SPOT® Cytokine Plate following manufacture's instruction (Meso Scale Discovery). The plate was read using Sector Imager 6000, and IL-17 concentration was extrapolated from the standard curve. The IC50s were determined by GraphPad.

full-length human RORγt [4] = molecular target: T1, full-length human RORγt; assay: RORγt (full-length human) Reporter Assay, Conditions B or C; assay type: cell-based; settings: for pIC50: HEK293T cells, GAL4-DBD-RORγt, luciferase, read-out: RORγt (FL) Reporter Assay B or C, IC50; for inhibition at 6 µM: read-out: RORγt (FL) Reporter Assay B or C, % inhibition @ 6 μM, 6 μM compound
Experimental: HEK293T cells were plated at 35,000 per well in 96-well plate in medium of DMEM with 10% FBS. […] After overnight (16 to 20 hours) incubation, media were removed and cells were lysed with 50 μL Glo Lysis Buffer (Promega) for 10-15 minutes followed by 10 minute incubation with 50 uL Dual Glo reagent (Promega) at room temperature. Firefly luciferase luminescence was measured using a BMG Pherastar plate reader. To each well, 50 uL Stop and Glo reagent was added and incubated for 10 minutes at room temperature. Renilla luminescence was measured using a BMG Pherastar plate reader. To calculate the effect of compounds on RORγt activity, firefly values were normalized against values of DMSO only and values of reference compound at saturating concentration, then further normalized against Renilla signals. IC50s were generated by plotting final Renilla normalized data against compound concentration and percent inhibition was calculated against DMSO control. […] HEK293T cells were plated at 8750 cells per well in 384-well plate in medium of DMEM with 10% FBS. […] After overnight (16 to 20 hours) incubation, media were removed and cells were lysed with 20 μL Glo Lysis Buffer (Promega) for 10-15 minutes followed by 10 minute incubation with 20 uL Dual Glo reagent (Promega) at room temperature. Firefly luciferase luminescence was measured using a BMG Pherastar plate reader. To each well, 20 uL Stop and Glo reagent was added and incubated for 10 minutes at room temperature. Renilla luminescence was measured using a BMG Pherastar plate reader. To calculate the effect of compounds on RORγt activity, firefly values were normalized against values of DMSO only and values of reference compound at saturating concentration, then further normalized against Renilla signals. IC50s were generated by plotting final Renilla normalized data against compound concentration and percent inhibition was calculated against DMSO control.

| pIC50 (full-length human RORγt [1]) | inhibition at 2 µM (full-length human RORγt [1]) | pKd [2] | pIC50 [3] | pIC50 (full-length human RORγt [4]) | inhibition at 2 µM (full-length human RORγt [4]; read-out: RORγt (FL) Reporter Assay B or C, % inhibition (* at 2 μM), 2 μM compound concentration (footnote *)) | inhibition at 6 µM (full-length human RORγt [4]) | inhibition at 6 µM (full-length human RORγt [1]; read-out: RORγt (FL) Reporter Assay A, % inhibition @ 6 μM, 6 μM compound) | SMILES |
| --- | --- | --- | --- | --- | --- | --- | --- | --- |
| 7.42 | 102% | 9.00 | 7.19 | 8.22 | 108% | – | – | C[C@H]1CCCN1C(=O)c1nc(-c2nnc(C(C)(C)O)o2)sc1-c1ccc(C(O)(C(F)(F)F)C(F)(F)F)cc1C(F)(F)F [Example 7/1, (S)-(5-(4-(1,1,1,3,3,3-hexafluoro-2-hydroxypropan-2-yl)-2-(trifluoromethyl)phenyl)-2-(5-(2-hydroxypropan-2-yl)-1,3,4-oxadiazol-2-yl)thiazol-4-yl)(2-methylpyrrolidin-1-yl)methanone] |
| 8.10 | 99% | 10.89 | 8.05 | – | – | – | – | CC[C@H](NS(=O)(=O)c1ccc(-c2sc(-c3cccc(CC(C)(C)C(=O)O)n3)nc2C(=O)N2CCC(F)(F)CC2)c(C(F)F)c1F)C(F)(F)F [Example 19, (S)-3-(6-(5-(2-(Difluoromethyl)-3-fluoro-4-(N-(1,1,1-trifluorobutan-2-yl)sulfamoyl)phenyl)-4-(4,4-difluoropiperidine-1-carbonyl)thiazol-2-yl)pyridin-2-yl)-2,2-dimethylpropanoic acid] |
| 6.96 | 99% | 8.30 | – | 7.08 | – | 87% | – | C[C@H]1CCCN1C(=O)c1nc(-c2nnc(C(C)(C)O)n2C)sc1-c1ccc(C(O)(C(F)(F)F)C(F)(F)F)cc1C(F)(F)F [Example 22, (S)-(5-(4-(1,1,1,3,3,3-Hexafluoro-2-hydroxypropan-2-yl)-2-(trifluoromethyl)phenyl)-2-(5-(2-hydroxypropan-2-yl)-4-methyl-4H-1,2,4-triazol-3-yl)thiazol-4-yl)(2-methylpyrrolidin-1-yl)methanone] |
| – | – | 8.51 | – | 7.40 | – | 109% | – | C[C@H](NS(=O)(=O)c1ccc(-c2sc(-c3nnc(C(C)(C)O)n3C3CC3)nc2C(=O)N2CCC(F)(F)CC2)c(Cl)c1Cl)C(F)(F)F [Example 23, (S)-2,3-Dichloro-4-(2-(4-cyclopropyl-5-(2-hydroxypropan-2-yl)-4H-1,2,4-triazol-3-yl)-4-(4,4-difluoropiperidine-1-carbonyl)thiazol-5-yl)-N-(1,1,1-trifluoropropan-2-yl)benzenesulfonamide] |
| 7.52 | – | 9.42 | 8.05 | – | – | – | 107% | Cc1c(S(=O)(=O)N[C@@H](C)C(F)(F)F)ccc(-c2sc(-c3nnc(C(C)(C)O)o3)nc2C(=O)N2CCC(F)(F)CC2)c1Cl [Example 27, 3-Chloro-4-(4-(4,4-difluoropiperidine-1-carbonyl)-2-(5-(2-hydroxypropan-2-yl)-1,3,4-oxadiazol-2-yl)thiazol-5-yl)-2-methyl-N—((S)-1,1,1-trifluoropropan-2-yl)benzenesulfonamide] |
